The subject of this experiment is M. tuberculosis H37Rv growth inhibition with meropenem. Kind of experiment: dose response, H37Rv, with and without meropenem (AID 434987).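 Also: growth over 7 days at 37 °C before Alamar Blue read on day 9.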
The mark [1] stands for this setting: M. tuberculosis H37Rv growth inhibition, measured here: IC50 without meropenem.
The mark [2] stands for this setting: M. tuberculosis H37Rv growth inhibition, measured here: IC90 without meropenem.
[3] abbreviates: measured here: IC90 with meropenem.

A word on the IC50: it is the point on the concentration scale where inhibition reaches its midpoint. As a reminder, the IC90 is the point of the concentration-response curve where the effect stands at 90%. Low readings indicate an effect from little substance, high ones a need for much substance.

Activity calls are given as the source filed them. No rule for the calls is given here. A value given as a limit tells only on which side of the number the result lay.

Turning to `CC(C)CCN1CC(O)=C(c2nc3ccccc3[nH]2)C1=N`, the IC50 was 6.68 µM. The IC50 under setting [1] stood at 73 µM. Further, the IC90 under setting [2] was over 100 µM. Further, the IC90 under setting [3] is over 100 µM.

On to `COc1ccc(-c2csc(NC(=O)c3c(C)noc3C)n2)cc1`, for which the IC50 is 25.9 µM. Under setting [1], this molecule returned a concentration for half-maximal inhibition (IC50) of over 100 µM. The molecule also showed an IC90 under setting [2] of over 100 µM. Under setting [3], the IC90 is over 100 µM.

As to `Cc1onc(NC(=O)c2ccc([N+](=O)[O-])o2)c1Br`, the IC50 is 6.54 µM. Further, under setting [1], the IC50 came to 26.2 µM. The IC90 under setting [2] amounted to 36 µM. Further, the concentration for an effect of 90% (IC90) under setting [3] amounted to 16.4 µM.

For the molecule `CC1(C)CC(=O)c2cc(C(=O)NCc3ccco3)c(=O)n(-c3ccccc3)c2C1`, the IC50 was > 100 µM (inactive). Under setting [1], this molecule came in with an IC50 of over 100 µM. Also, the IC90 under setting [2] is over 100 µM. The IC90 under setting [3] is over 100 µM.

For the molecule `CC(=O)c1c(OC(=O)c2cccc(Cl)c2)c2ccccc2n1C`, the IC50 is 29.5 µM (inactive). Also, the IC50 under setting [1] stood at 68.6 µM. Under setting [2], this molecule yielded an IC90 of over 100 µM. The IC90 under setting [3] is over 100 µM.

With `COc1cccc(NS(=O)(=O)c2ccc3[nH]cc(C(=O)NCCC(C)C)c(=O)c3c2)c1`, the IC50 is > 100 µM (inactive). The molecule further displayed an IC50 under setting [1] of over 100 µM. Moreover, under setting [2], the 90% effect concentration (IC90) was over 100 µM. This molecule also gave an IC90 under setting [3] of over 100 µM.

`O=C(CSc1n[nH]c(=O)n1C1CC1)c1ccc2c(c1)OCCO2`: the half-inhibitory concentration (IC50) was 4.9 µM. This molecule returned an IC50 under setting [1] of 46.3 µM. The IC90 under setting [2] is over 100 µM. The molecule further had an IC90 under setting [3] of over 100 µM.

With `CCN(CCNC(=O)Nc1ccc(Cl)cc1)c1ccccc1`, the IC50 was > 100 µM (inactive). Under setting [1], this molecule registered an IC50 of over 100 µM. Also, the IC90 under setting [2] is over 100 µM. Under setting [3], this molecule gave a 90% effect concentration (IC90) of over 100 µM.

Consider `Cc1cc(F)ccc1NCC(=O)Nc1ccc(Br)cc1C`, for which the IC50 was 94.2 µM (inactive). Moreover, under setting [1], the IC50 was determined as 98.2 µM. Moreover, under setting [2], the IC90 is over 100 µM. This molecule came in with an IC90 under setting [3] of over 100 µM.

On to `COc1ccc(C(=O)Nc2oc(-c3ccccc3)c(-c3ccccc3)c2C#N)cc1OC`, for which the IC50 is 25.2 µM (inactive). Besides, the IC50 under setting [1] worked out at 38.7 µM. This molecule displayed an IC90 under setting [2] of over 100 µM. Besides, the IC90 under setting [3] was over 100 µM.

Consider `Fc1ccc(C2Nc3cccc4cccc(c34)N2)cc1`, for which the IC50 is > 100 µM (inactive). Moreover, the IC50 under setting [1] is over 100 µM. Under setting [2], the IC90 was over 100 µM. Moreover, the IC90 under setting [3] was over 100 µM.

In the case of `CCN=c1scc(-c2ccccc2)n1/N=C/c1ccccn1`, the IC50 was 93.2 µM (inactive). The molecule also displayed an IC50 under setting [1] of over 100 µM. For the same molecule, the IC90 under setting [2] is over 100 µM. Also, the IC90 under setting [3] is over 100 µM.

Take `COc1cc(OC)c(OC)cc1/C=C1\CCC(C2CCCC2)C1=O` (stereo not drawn): the IC50 is 55.9 µM (inactive). In addition, the IC50 under setting [1] turned out to be 77.5 µM. For the same molecule, under setting [2], the IC90 was over 100 µM. Besides, the IC90 under setting [3] was over 100 µM.

Regarding `CCC(=O)Nc1cc(OC)c(NC(=O)c2ccccc2)cc1OC`, the IC50 was 22.7 µM. Under setting [1], this molecule showed an IC50 of 93.4 µM. In addition, under setting [2], the IC90 is over 100 µM. Moreover, under setting [3], the 90% effect concentration (IC90) was over 100 µM.

As for `O=C(Nc1ccc(F)cc1)c1sc2cc(C(F)(F)F)cnc2c1-c1cccs1`, the IC50 was > 100 µM (inactive). Further, the IC50 under setting [1] was over 100 µM. Under setting [2], this molecule returned a concentration for an effect of 90% (IC90) of over 100 µM. For the same molecule, the concentration for an effect of 90% (IC90) under setting [3] is over 100 µM.

`O=C(COC(=O)c1ccc(Cl)cc1[N+](=O)[O-])NNC(=O)c1cccs1`: the IC50 was 24.8 µM (inactive). The molecule also gave an IC50 under setting [1] of 39.4 µM. Under setting [2], the IC90 came out at 53.9 µM. Also, the IC90 under setting [3] was 51.1 µM.

As to `CC(=O)NC(=S)Nc1ccc(NC(=O)c2cccnc2Cl)cc1`, the IC50 is > 100 µM (inactive). For the same molecule, under setting [1], the 50% inhibitory concentration (IC50) is over 100 µM. Moreover, the concentration for an effect of 90% (IC90) under setting [2] was over 100 µM. Under setting [3], the IC90 was over 100 µM.

Take `Cc1c(OCc2ccc(C(=O)O)cc2)ccc2c(-c3ccccc3)cc(=O)oc12`: the IC50 is 1.42 µM. In addition, the IC50 under setting [1] turned out to be 46.2 µM. In addition, under setting [2], the IC90 worked out at 96.7 µM. The 90% effect concentration (IC90) under setting [3] was 2.09 µM.

For `O=C(COc1ccc(Cl)cc1)OCC(=O)N1CCCCCC1`, the IC50 is 45.5 µM (inactive). This molecule registered an IC50 under setting [1] of over 100 µM. The IC90 under setting [2] was over 100 µM. Also, the IC90 under setting [3] was over 100 µM.

Turning to `CC(C)NC(=O)C(=O)NNC(=O)C12CC3CC(CC(C3)C1)C2`, the IC50 is 15.6 µM. The molecule also yielded an IC50 under setting [1] of 81.8 µM. The same molecule yielded an IC90 under setting [2] of over 100 µM. Under setting [3], this molecule displayed an IC90 of over 100 µM.

Take `CC(C(=O)Nc1sc2c(c1C(=O)NCc1ccco1)CCCC2)N1C(=O)c2ccccc2C1=O` (stereo not drawn): the IC50 was 46.1 µM (inactive). The half-inhibitory concentration (IC50) under setting [1] was over 100 µM. The same molecule yielded an IC90 under setting [2] of over 100 µM. This molecule registered an IC90 under setting [3] of over 100 µM.

Consider `O=C(Cn1c(=O)c2cccn2c2ccccc21)NCCc1ccc(Cl)cc1`, for which the IC50 is > 100 µM (inactive). Under setting [1], this molecule registered a half-maximal inhibitory concentration (IC50) of over 100 µM. The molecule further had an IC90 under setting [2] of over 100 µM. Besides, the concentration for an effect of 90% (IC90) under setting [3] is over 100 µM.

In the case of `C/C(=N\OCC(=O)Nc1nc2ccccc2s1)c1ccccc1`, the IC50 was 13.1 µM. The molecule also came in with an IC50 under setting [1] of 47.6 µM. The 90% effect concentration (IC90) under setting [2] was 54.1 µM. Also, the IC90 under setting [3] is 35.6 µM.

With `COc1ccc(-c2c(C(F)(F)F)oc3cc(OCC(=O)Nc4ccccc4C(F)(F)F)ccc3c2=O)cc1OC`, the IC50 is > 100 µM (inactive). Besides, under setting [1], the 50% inhibitory concentration (IC50) was over 100 µM. The molecule also yielded an IC90 under setting [2] of over 100 µM. Under setting [3], this molecule gave an IC90 of over 100 µM.

Turning to `O=C(O)C1CC(=O)N(c2ccc(OCc3ccccc3Cl)cc2)C1` (stereo not drawn), the IC50 was 14.2 µM. In addition, the IC50 under setting [1] is 41.6 µM. For the same molecule, under setting [2], the IC90 was over 100 µM. Under setting [3], this molecule had an IC90 of over 100 µM.

On to `COc1cc(/C(C)=N\NC(N)=S)cc(OC)c1OC`, for which the IC50 is 10.2 µM. The IC50 under setting [1] is over 100 µM. The same molecule had an IC90 under setting [2] of over 100 µM. Also, under setting [3], the IC90 was found to be 19.6 µM.

As for `CCCc1cc(NC(=O)COC(=O)c2nccnc2N)n(-c2ccccc2)n1`, the IC50 was 49.3 µM (inactive). Further, the IC50 under setting [1] was found to be 68.4 µM. In addition, under setting [2], the IC90 is over 100 µM. Under setting [3], the IC90 was 50.8 µM.

In the case of `COCCNC(=O)COc1ccc(Oc2ccccc2)cc1`, the IC50 was 49.5 µM (inactive). In addition, the 50% inhibitory concentration (IC50) under setting [1] was over 100 µM. The same molecule yielded an IC90 under setting [2] of over 100 µM. In addition, the IC90 under setting [3] is over 100 µM.

Take `CCCCCNCc1cccc(Br)c1`: the IC50 was 48.5 µM (inactive). For the same molecule, the IC50 under setting [1] is over 100 µM. Under setting [2], this molecule gave an IC90 of over 100 µM. Under setting [3], this molecule showed an IC90 of over 100 µM.

Regarding `COc1ccc([N+](=O)[O-])cc1NS(=O)(=O)c1ccc(Cl)c(C(=O)Nc2sc3c(c2C#N)CCCCC3)c1`, the IC50 is > 100 µM (inactive). The IC50 under setting [1] was over 100 µM. The IC90 under setting [2] was over 100 µM. For the same molecule, under setting [3], the IC90 is over 100 µM.

As to `O=C(Nc1ccc2nc3n(c(=O)c2c1)CCCC3)c1cc([N+](=O)[O-])ccc1F`, the IC50 was 83.8 µM (inactive). This molecule displayed a concentration for half-maximal inhibition (IC50) under setting [1] of 83.1 µM. For the same molecule, the 90% effect concentration (IC90) under setting [2] stood at 90 µM. Under setting [3], the IC90 was determined as 91 µM.

As to `c1ccc(Nc2ncnc3c2oc2ccccc23)cc1`, the IC50 was 2 µM. For the same molecule, under setting [1], the IC50 is over 100 µM. Under setting [2], this molecule had an IC90 of over 100 µM. The IC90 under setting [3] was over 100 µM.

Values taken from PubChem BioAssay AID434987 (Southern Research Specialized Biocontainment Screening …, 2010).
